In data set [1] the target is LRRK2. Also on record: method as in PMID 31365783, PMID 36256881, PMID 33582389, PMID 33248850. The following applies: saturation assays; cited from earlier work.
Details of data set [2]: method as in earlier work. The following applies: molecular formula strings file; cited from earlier work.
Data set [3] has as its system LRRK2. The following applies: read-out: WCA IC50, cited from earlier work.
For data set [4] the following is noted: human liver microsomal clearance; cited from earlier work. In general terms: Microsomes from liver hold many membrane-bound enzymes, among them those of drug oxidation.
The test system of data set [5] is LRRK2 G2019S. The following applies: cited from earlier work.
The subject of data set [6] is LRRK2 WT. The following applies: cited from earlier work.
The subject of data set [7] is MDR1. The following applies: cited from earlier work.
For data set [8] the following is noted: cited from earlier work; for RRCK Papp AB: molecular formula strings file.
Data set [9] concerns THLE cells. The following applies: THLE cell viability; cited from earlier work.
Data set [10] addresses T1, LRRK2 (Rattus norvegicus, UniProt F1LNJ1).
T1 construct: from tissue; host or cells: rat brain (Sprague-Dawley rats)
Kind of data set: In vitro autoradiography in rat brain sections. It counts as binding. The following applies: blocking with 3 (10 μM). As to the method:
The general procedure for autoradiography studies was described previously with minor revision in this work.[36],[40] Brain sections from rats were preincubated with Tris-HCl buffer (50 mM), MgCl2 (1.2 mM) and CaCl2 (2 mM) solution for 20 min at ambient temperature, followed by incubation with [^11C]3 and [^18F]4 (0.48 nM). […] After incubation, brain sections were rinsed with ice-cold buffer 3 times for 2 min and dipped in cold distilled water for 10 s. The brain sections were dried with cold air and then placed on imaging plates (BAS-MS2025, GE Healthcare, NJ) for optimized contact periods. Autoradiograms were obtained and regions of interest (ROIs) were carefully drawn with the reference of naked-eye observation. Radioactivity was measured using an Amersham Typhoon 5 analyzer system and expressed as photostimulated luminescence values per unit area (PSL/mm^2) or normalized to % of radioactivity vs control.

Like-named read-outs stand apart in the source and are kept apart here. Where only a bound is given, the exact number is not on record here.

T1 sequence (F1LNJ1 1-2526): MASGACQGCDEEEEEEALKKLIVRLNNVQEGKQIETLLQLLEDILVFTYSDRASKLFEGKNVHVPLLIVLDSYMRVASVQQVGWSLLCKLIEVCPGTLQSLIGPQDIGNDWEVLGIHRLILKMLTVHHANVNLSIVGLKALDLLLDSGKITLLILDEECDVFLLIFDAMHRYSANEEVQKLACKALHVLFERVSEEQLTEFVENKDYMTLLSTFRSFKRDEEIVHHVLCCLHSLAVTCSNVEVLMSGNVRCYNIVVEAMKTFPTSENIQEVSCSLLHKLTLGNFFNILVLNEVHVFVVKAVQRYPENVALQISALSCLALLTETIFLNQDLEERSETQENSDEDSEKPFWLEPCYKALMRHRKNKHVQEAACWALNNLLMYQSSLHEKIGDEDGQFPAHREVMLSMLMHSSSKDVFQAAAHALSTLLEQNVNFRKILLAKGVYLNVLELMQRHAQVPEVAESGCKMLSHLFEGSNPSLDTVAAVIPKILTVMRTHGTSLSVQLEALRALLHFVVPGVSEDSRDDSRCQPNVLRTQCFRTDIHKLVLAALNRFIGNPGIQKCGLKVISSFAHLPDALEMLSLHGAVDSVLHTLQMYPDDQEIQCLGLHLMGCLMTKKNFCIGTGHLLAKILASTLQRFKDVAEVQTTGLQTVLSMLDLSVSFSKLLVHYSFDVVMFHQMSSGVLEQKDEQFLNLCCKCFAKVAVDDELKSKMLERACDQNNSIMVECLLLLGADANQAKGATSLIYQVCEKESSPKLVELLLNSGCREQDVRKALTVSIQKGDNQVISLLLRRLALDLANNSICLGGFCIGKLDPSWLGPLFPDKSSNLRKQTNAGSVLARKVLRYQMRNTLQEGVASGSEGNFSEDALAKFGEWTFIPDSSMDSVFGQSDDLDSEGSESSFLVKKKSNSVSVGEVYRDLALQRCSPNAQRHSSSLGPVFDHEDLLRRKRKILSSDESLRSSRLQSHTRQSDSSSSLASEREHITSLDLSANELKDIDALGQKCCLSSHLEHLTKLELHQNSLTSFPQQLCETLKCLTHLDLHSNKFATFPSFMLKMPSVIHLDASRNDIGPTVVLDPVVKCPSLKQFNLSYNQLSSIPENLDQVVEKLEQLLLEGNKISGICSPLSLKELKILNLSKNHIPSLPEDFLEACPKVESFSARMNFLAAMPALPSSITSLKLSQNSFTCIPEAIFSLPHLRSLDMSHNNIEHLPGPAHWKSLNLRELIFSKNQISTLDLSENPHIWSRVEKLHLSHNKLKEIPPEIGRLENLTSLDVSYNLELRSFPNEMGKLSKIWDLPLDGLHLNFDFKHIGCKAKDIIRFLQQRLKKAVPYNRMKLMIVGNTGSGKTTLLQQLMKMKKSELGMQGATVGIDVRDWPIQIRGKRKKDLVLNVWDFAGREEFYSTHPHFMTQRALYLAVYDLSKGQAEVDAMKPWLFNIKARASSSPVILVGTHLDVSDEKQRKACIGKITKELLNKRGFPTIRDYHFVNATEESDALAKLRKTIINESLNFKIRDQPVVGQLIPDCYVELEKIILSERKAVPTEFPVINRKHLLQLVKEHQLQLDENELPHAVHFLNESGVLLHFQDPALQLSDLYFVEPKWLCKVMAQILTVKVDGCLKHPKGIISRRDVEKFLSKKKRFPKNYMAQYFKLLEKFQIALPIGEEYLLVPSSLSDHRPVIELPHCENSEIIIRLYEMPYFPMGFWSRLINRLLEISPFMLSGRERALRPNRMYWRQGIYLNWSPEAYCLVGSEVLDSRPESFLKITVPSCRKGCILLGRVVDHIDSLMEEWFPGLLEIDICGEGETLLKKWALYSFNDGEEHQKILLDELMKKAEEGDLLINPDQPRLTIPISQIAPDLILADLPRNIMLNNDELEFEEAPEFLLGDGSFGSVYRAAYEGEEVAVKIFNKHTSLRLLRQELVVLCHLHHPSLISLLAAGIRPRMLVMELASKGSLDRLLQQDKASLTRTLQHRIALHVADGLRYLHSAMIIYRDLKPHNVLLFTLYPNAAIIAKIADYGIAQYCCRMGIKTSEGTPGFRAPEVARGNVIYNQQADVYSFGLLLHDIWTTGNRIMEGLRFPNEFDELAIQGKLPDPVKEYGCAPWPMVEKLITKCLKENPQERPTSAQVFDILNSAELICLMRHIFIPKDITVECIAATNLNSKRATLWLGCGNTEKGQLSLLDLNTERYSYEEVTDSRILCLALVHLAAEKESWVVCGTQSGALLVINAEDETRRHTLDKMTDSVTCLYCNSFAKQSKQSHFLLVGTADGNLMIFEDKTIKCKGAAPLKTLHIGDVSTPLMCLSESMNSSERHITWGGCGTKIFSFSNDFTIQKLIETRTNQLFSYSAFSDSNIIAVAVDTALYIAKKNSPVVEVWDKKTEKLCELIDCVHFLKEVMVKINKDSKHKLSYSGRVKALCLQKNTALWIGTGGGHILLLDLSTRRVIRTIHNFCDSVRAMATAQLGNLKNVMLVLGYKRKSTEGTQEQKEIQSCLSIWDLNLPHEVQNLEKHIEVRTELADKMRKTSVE

Take `CN(C)c1ncnc2[nH]cc(-c3ccc([18F])nc3)c12` [compound 1]: the Kd (in general, the concentration at which binding is half-saturated) in data set [1] was 6.7 nM.

Turning to `CC(C)(C)Cn1ccc2c(N3CCOCC3)nc(-c3ccc(NC(=O)c4ccc([18F])nc4)cc3)nc21` [FMN3PA], the Kd in data set [1] is 20 nM.

Consider `N#Cc1cccc(-c2c[nH]c3ncnc(N4CCOCC4)c23)c1F` [compound 4], for which the LogD – broadly, the decadic logarithm of the distribution of all forms, ionised or not, between an organic phase and buffer at a given pH – in [2] is given as 2.072. Besides, in [2], the pKa (usually the pH at which an ionisable group is half protonated) is 5.61. The 50% inhibitory concentration (IC50) (in general, the concentration that gives 50% inhibition) in [3] (whole cellular LRRK2 assay, n ≥ 2) was 20 nM; in data set [5] (Table S1), 9 nM; in data set [6] (Table S1) it was 3 nM; in [6] (biochemical LRRK2 assay, n ≥ 2), 3.58 nM; in data set [9], 162 µM. Further, the “HLM CL” value in [4] was 31.4 mL/min/kg. Further, the “MDR1 BA/AB” value in data set [7] (MDR1 efflux ratio) is listed as 1.10. Further, the RRCK PappAB was 29.2 10^-6 cm/s in data set [8] (Table S1, unit assumed) and 29.18 1 × 10^–6 cm/s in [8] (passive permeability). For the same compound, the “RRCK Papp AB” value in data set [8] is 29.18.

For `N#Cc1cccc(-c2c[nH]c3ncnc(N4CCOCC4)c23)c1` [compound 3, 3-(4-morpholino-7H-pyrrolo[2,3-d]pyrimidin-5-yl)benzonitrile], the half-maximal inhibitory concentration (IC50) was 25 nM in [3] (Table S1); 14 nM in [5] (biochemical LRRK2 assay, n ≥ 2); 3 nM in [6] (biochemical LRRK2 assay, n ≥ 2); above 223 µM in data set [9]. Also, the “HLM CL” value in data set [4] was 36 mL/min/kg. Moreover, the entries for the “MDR1 BA/AB” value in data set [7] (MDR1 efflux ratio) and in data set [7] (Table S1) were 1.08 and 1.0, respectively. The RRCK PappAB in data set [8] (Table S1, unit assumed) was 27 10^-6 cm/s; in data set [8] (passive permeability), 26.68 1 × 10^–6 cm/s. Besides, in data set [8], the “RRCK Papp AB” value is on record as 26.68.

For the compound `[18F]c1ccc(-c2c[nH]c3ncnc(N4CCOCC4)c23)cn1` [compound 2], the dissociation constant Kd in data set [1] was 14.3 nM.

For `CNc1nc(Nc2ccc(C(=O)N3CCOCC3)cc2O[11CH3])ncc1C(F)(F)F` [GNE-1023, reference compound], the IC50 in data set [6] (biochemical LRRK2 assay, n ≥ 2) is 2 nM. Besides, in data set [7] (MDR1 efflux ratio), the “MDR1 BA/AB” value is listed as 1.2. Moreover, the “RRCK PappAB” value in data set [8] (passive permeability) is on record as 18.2 1 × 10^–6 cm/s.

Take `N#[11C]c1cccc(-c2c[nH]c3ncnc(N4CCOCC4)c23)c1` [[^11C]3]: the “reduction of radioactive uptake under self-blocking” value in [10] (cerebellum) amounted to 83%; in [10] (cerebral cortex), 87%; in data set [10] (hippocampus) it was 87%; in data set [10] (pons) it was 64%; in data set [10] (striatum), 85%; in [10] (thalamus) it was 83%.

Turning to `CC(C)(C)Cn1ccc2c(N3CCOCC3)nc(-c3ccc(NC(=O)Nc4ccc([18F])nc4)cc3)nc21` [FMN3PU], in [1], the equilibrium dissociation constant (Kd) is 23.6 nM.

Source of the values: PMC10895652, “Preclinical Evaluation of Novel Positron Emission Tomography (PET) Probes for Imaging Leucine-Rich Repeat Kinase 2 (LRRK2)” (Journal of Medicinal Chemistry, 2024).
